Assay results taken from patent publication US8959984B2, “Proteome-wide quantification of small molecule binding to cellular target proteins” (priority 2007, dated 2015).
Where two headings read alike, the source gives them in different places.

Columns and labels:
JAK1 = JAK1 (Homo sapiens, UniProt P23458); test: binding to immobilized V16742 (IVA1/IVA2, HeLa lysate, MS)
ERK2 = ERK2 (Homo sapiens, UniProt P28482); test: as above; conditions: for Percent bound at 1.87 μM 16742 conc / Percent bound at 8.74 μM 16742 conc / Percent bound at 52 μM 16742 conc / Kd: Erk2
CK1e = CK1e (Homo sapiens, UniProt P49674); test: as above
JNK2 = JNK2 (Homo sapiens, UniProt P45984); test: as above
BRD4 = BRD4 (Homo sapiens, UniProt O60885); test: as above
EphB2 = target: T1, EphB2 (Homo sapiens, UniProt P29323); test: as above
T1 sequence (P29323 19-1055): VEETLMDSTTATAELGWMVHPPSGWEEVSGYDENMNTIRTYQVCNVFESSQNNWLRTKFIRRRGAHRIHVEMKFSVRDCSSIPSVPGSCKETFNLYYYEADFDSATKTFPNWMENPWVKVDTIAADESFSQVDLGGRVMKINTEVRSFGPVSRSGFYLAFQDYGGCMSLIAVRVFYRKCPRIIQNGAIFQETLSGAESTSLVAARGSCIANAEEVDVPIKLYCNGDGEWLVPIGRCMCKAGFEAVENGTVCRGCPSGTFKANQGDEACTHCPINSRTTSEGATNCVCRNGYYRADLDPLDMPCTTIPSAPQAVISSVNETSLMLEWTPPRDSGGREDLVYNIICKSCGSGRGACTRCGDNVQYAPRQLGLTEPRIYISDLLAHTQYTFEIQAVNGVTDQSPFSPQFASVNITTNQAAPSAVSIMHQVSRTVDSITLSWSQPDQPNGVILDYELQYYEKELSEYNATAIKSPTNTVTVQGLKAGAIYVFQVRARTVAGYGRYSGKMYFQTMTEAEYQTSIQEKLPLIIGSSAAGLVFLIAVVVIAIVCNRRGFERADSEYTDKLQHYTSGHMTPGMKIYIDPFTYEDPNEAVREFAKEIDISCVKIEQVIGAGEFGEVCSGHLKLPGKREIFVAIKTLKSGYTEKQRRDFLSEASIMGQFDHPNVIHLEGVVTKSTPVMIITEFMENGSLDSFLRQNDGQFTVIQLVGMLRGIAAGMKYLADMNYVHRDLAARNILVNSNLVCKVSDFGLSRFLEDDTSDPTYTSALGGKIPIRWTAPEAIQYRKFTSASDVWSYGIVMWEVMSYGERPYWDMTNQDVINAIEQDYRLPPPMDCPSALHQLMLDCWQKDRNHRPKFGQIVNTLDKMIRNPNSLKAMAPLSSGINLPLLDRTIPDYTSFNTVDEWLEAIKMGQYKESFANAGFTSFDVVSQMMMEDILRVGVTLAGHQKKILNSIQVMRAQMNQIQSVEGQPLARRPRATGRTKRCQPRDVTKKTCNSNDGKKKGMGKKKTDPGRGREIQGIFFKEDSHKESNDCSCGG

RIPK2 = RIPK2 (Homo sapiens, UniProt O43353); test: as above
Sepiapterin reductase = Sepiapterin reductase (Homo sapiens, UniProt P35270); test: as above
Description: Using the three populations of SILAC-labelled cells and the three different inhibitor resins, two parallel experiments termed as IVA1 (In Vitro Association, Setting 1) and IVA2 (In Vitro Association, Setting 2) were performed. […] In IVA2, SILAC encoded HeLa cells lysates were subjected to two parallel rounds of consecutive affinity purification at the highest ligand density where the supernatant left behind after the first IVA was used for the second round of IVA. An additional incubation of Hela cell lysate with control beads devoid of immobilized inhibitor was also performed to distinguish background binders.
A common IPI identifier template was assigned to peptides based on the MASCOT html-output file for the IVA2 setting in first experiment. The proteins hits identified based on unique peptides were filtered for mass error and MASCOT score. Eventually, the hits identified in both first and second IVA2 experiments were quantified for IVA2 setting of first experiment by MSQuant. […] A next round of sorting was done to filter out protein hits that are less than 50% enriched in the IVA second round compared to IVA first round. This is because at enrichment below 50%, there could be significant errors in deducing kd values for the corresponding targets. […] The same set of targets was also quantified in IVA2 and IVA1 settings of an independent second experiment.

[1] = target: T2, MST3 (STK24, IPI00872754) (Homo sapiens, UniProt Q9Y6E0); test: binding to VI16742 beads (HeLa lysate, SILAC MS)
T2 construct: endogenous in cells; host or cells: HeLa S3 cell lysate

SNRPG = SNRPG (Homo sapiens, UniProt P62308)
RPL7 = RPL7 (Homo sapiens, UniProt P18124)
SNRPE = SNRPE (Homo sapiens, UniProt P62304)
[2] = immobilized V16742, read-out: Kd

SNRPE, sequence (P62304 whole entry): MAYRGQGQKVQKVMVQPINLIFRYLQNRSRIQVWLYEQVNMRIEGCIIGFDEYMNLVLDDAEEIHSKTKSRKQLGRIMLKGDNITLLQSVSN
RIPK2, sequence (O43353 whole entry): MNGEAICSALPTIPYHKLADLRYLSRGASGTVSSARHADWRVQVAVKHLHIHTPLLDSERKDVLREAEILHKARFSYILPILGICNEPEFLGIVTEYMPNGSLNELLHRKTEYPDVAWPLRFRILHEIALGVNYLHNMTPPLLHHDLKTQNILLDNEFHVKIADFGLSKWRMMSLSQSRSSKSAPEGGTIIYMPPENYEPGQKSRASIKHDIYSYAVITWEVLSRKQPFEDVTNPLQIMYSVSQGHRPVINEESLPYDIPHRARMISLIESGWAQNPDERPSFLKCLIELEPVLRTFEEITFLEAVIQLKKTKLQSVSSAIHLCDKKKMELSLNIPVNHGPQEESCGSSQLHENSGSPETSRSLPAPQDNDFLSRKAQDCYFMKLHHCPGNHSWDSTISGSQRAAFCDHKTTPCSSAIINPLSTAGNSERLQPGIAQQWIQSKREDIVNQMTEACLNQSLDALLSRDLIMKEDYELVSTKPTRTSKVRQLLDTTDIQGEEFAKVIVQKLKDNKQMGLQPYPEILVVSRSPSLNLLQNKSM
JNK2, sequence (P45984 whole entry): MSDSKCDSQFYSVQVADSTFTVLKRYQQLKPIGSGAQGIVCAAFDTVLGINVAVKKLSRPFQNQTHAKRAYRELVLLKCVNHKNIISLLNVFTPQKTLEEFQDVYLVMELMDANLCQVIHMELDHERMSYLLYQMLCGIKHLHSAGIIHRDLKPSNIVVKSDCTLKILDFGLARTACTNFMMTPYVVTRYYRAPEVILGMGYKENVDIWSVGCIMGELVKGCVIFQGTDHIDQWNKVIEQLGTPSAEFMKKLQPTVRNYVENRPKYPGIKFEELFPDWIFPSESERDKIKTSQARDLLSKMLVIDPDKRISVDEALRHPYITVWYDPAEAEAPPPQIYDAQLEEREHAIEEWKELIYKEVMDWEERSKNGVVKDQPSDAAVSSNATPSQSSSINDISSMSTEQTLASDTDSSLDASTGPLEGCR
JAK1, sequence (P23458 whole entry): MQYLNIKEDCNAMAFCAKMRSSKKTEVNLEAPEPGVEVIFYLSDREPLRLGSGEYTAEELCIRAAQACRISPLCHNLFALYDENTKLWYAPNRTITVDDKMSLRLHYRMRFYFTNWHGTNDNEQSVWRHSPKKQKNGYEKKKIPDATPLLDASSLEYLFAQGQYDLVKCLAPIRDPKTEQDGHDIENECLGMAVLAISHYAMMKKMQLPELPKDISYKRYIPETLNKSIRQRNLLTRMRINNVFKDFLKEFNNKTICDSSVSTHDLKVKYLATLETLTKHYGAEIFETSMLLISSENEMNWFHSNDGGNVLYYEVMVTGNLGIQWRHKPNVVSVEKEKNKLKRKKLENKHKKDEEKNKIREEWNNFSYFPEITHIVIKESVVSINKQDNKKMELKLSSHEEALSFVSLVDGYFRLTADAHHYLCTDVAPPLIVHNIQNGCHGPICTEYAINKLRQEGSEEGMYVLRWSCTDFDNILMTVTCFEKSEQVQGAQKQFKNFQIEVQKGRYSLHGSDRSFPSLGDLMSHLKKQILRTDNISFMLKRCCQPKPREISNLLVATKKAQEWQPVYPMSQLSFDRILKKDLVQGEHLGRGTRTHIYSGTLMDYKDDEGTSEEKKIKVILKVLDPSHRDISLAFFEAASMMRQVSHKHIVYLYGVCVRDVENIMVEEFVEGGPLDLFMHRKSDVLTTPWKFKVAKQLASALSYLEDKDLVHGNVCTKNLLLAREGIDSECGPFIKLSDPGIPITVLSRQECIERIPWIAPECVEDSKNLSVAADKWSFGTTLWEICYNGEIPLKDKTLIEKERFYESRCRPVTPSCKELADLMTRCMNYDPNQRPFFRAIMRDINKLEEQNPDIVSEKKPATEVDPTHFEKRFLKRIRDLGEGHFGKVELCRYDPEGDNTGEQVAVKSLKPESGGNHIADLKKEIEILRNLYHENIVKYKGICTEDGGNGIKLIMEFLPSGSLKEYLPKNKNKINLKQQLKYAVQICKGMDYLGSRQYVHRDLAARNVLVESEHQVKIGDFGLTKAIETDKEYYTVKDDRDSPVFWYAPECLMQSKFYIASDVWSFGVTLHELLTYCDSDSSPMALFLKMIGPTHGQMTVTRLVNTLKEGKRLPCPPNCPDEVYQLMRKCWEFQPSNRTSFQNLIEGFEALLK
Sepiapterin reductase, sequence (P35270 whole entry): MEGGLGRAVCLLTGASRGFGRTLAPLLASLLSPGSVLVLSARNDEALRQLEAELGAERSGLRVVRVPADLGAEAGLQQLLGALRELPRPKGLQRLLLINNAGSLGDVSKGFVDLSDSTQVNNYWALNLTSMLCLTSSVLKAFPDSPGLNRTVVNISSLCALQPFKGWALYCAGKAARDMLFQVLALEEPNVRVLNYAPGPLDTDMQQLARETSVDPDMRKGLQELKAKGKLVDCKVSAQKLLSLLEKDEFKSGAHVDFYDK
T2 sequence (Q9Y6E0 whole entry): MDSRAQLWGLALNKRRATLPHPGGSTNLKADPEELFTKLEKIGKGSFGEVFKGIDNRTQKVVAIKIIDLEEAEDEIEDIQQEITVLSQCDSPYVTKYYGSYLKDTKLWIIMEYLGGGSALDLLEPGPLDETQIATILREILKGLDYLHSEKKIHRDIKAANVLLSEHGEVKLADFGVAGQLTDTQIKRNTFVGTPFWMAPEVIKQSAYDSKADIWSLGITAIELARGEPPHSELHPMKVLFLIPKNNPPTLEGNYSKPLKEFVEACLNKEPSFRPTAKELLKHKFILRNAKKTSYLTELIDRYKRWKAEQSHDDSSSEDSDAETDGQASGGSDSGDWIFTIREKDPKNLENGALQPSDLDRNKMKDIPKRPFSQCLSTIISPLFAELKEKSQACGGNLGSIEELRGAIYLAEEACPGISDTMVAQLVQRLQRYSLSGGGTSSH
ERK2, sequence (P28482 whole entry): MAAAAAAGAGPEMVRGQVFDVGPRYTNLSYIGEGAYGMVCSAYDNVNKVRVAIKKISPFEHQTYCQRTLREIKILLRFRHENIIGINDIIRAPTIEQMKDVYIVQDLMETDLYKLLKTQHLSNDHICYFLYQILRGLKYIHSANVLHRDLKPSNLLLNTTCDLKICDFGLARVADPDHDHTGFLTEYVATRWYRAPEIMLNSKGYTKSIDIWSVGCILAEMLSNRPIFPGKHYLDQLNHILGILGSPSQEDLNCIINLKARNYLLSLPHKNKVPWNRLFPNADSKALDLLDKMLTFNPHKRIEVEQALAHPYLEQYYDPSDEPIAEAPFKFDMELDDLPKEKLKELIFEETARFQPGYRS
CK1e, sequence (P49674 whole entry): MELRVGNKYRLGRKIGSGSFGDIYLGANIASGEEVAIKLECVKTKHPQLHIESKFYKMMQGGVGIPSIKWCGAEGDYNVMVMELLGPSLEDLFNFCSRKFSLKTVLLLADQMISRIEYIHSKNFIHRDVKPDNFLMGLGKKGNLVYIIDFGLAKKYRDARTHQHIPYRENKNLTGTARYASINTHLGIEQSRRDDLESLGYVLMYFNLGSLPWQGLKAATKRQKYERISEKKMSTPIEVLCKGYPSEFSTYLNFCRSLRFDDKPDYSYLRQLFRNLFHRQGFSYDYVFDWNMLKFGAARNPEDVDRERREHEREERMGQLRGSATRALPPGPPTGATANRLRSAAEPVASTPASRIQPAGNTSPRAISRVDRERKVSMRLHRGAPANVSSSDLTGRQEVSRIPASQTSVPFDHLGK
SNRPG, sequence (P62306 whole entry): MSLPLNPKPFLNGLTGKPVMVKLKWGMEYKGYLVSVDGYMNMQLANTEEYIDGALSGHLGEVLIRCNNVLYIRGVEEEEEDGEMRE
SNRPG, sequence (P62304 whole entry, further chain): as the sequence (P62304 whole entry) above
SNRPG, sequence (P62308 whole entry): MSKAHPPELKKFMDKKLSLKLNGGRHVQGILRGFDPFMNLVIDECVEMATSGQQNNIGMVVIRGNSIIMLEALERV

Compound: CC(C)n1c(=O)ccc2cnc(Nc3ccc(OCCN)cc3)nc21 [compound 16742]
- Percent bound at 1.87 μM 16742 conc (JAK1; EXPERIMENT 1): 16.10%
- Percent bound at 8.74 μM 16742 conc (JAK1; EXPERIMENT 1): 75.89%
- Percent bound at 52 μM 16742 conc (JAK1; EXPERIMENT 1): 90.34%
- Kd (JAK1; EXPERIMENT 1, read-out: Kd): 4.76 µM
- Percent bound at 1.87 μM 16742 conc (JAK1; EXPERIMENT 2): 8.59%
- Percent bound at 8.74 μM 16742 conc (JAK1; EXPERIMENT 2): 30.74%
- Percent bound at 52 μM 16742 conc (JAK1; EXPERIMENT 2): 78.69%
- Kd (JAK1; EXPERIMENT 2, read-out: Kd): 17.4 µM
- Kd (JAK1; read-out: Kd Avg): 11.1 µM
- Percent bound at 1.87 μM 16742 conc (ERK2; EXPERIMENT 1): 1.41%
- Percent bound at 8.74 μM 16742 conc (ERK2; EXPERIMENT 1): 5.40%
- Percent bound at 52 μM 16742 conc (ERK2; EXPERIMENT 1): 70.05%
- Kd (ERK2; EXPERIMENT 1, read-out: Kd): 35.1 µM
- Percent bound at 1.87 μM 16742 conc (ERK2; EXPERIMENT 2): 2.43%
- Percent bound at 8.74 μM 16742 conc (ERK2; EXPERIMENT 2): 5.90%
- Percent bound at 52 μM 16742 conc (ERK2; EXPERIMENT 2): 65.58%
- Kd (ERK2; EXPERIMENT 2, read-out: Kd): 38.5 µM
- Kd (ERK2; read-out: Kd Avg): 36.8 µM
- Kd (CK1e): 13 µM
- Percent bound at 1.87 μM 16742 conc (CK1e; CK1e, EXPERIMENT 1): 6.91%
- Percent bound at 8.74 μM 16742 conc (CK1e; CK1e, EXPERIMENT 1): 34.02%
- Percent bound at 52 μM 16742 conc (CK1e; CK1e, EXPERIMENT 1): 79.64%
- Percent bound at 1.87 μM 16742 conc (CK1e; CK1e, EXPERIMENT 2): 7.41%
- Percent bound at 8.74 μM 16742 conc (CK1e; CK1e, EXPERIMENT 2): 37.16%
- Percent bound at 52 μM 16742 conc (CK1e; CK1e, EXPERIMENT 2): 88.21%
- Kd (CK1e; Kd, CK1e): 14.5 µM
- Kd (CK1e; Kd, CK1e, EXPERIMENT 1): 16.1 µM
- Percent bound at 1.87 μM 16742 conc (JNK2; EXPERIMENT 1): 68.10%
- Percent bound at 8.74 μM 16742 conc (JNK2; EXPERIMENT 1): 89.45%
- Percent bound at 52 μM 16742 conc (JNK2; EXPERIMENT 1): 92.48%
- Kd (JNK2; EXPERIMENT 1, read-out: Kd): 0.91 µM
- Percent bound at 1.87 μM 16742 conc (JNK2; EXPERIMENT 2): 57.18%
- Percent bound at 8.74 μM 16742 conc (JNK2; EXPERIMENT 2): 75.70%
- Percent bound at 52 μM 16742 conc (JNK2; EXPERIMENT 2): 94.94%
- Kd (JNK2; EXPERIMENT 2, read-out: Kd): 1.69 µM
- Kd (JNK2; read-out: Kd Avg): 1.3 µM
- Percent bound at 1.87 μM 16742 conc (BRD4; EXPERIMENT 1): 0.33%
- Percent bound at 8.74 μM 16742 conc (BRD4; EXPERIMENT 1): 6.55%
- Percent bound at 52 μM 16742 conc (BRD4; EXPERIMENT 1): 73.70%
- Percent bound at 52 μM 16742 conc (BRD4; EXPERIMENT 2): 61.49%
- Kd (BRD4; read-out: Kd Avg): 32 µM
- Percent bound at 1.87 μM 16742 conc (EphB2; EXPERIMENT 1): 4.79%
- Percent bound at 8.74 μM 16742 conc (EphB2; EXPERIMENT 1): 17.01%
- Percent bound at 52 μM 16742 conc (EphB2; EXPERIMENT 1): 66.97%
- Kd (EphB2; EXPERIMENT 1, read-out: Kd): 30.6 µM
- Percent bound at 1.87 μM 16742 conc (EphB2; EXPERIMENT 2): 2.86%
- Percent bound at 8.74 μM 16742 conc (EphB2; EXPERIMENT 2): 13.05%
- Percent bound at 52 μM 16742 conc (EphB2; EXPERIMENT 2): 57.74%
- Kd (EphB2; EXPERIMENT 2, read-out: Kd): 42.3 µM
- Kd (EphB2; read-out: Kd Avg): 36.5 µM
- Percent bound at 1.87 μM 16742 conc (RIPK2; EXPERIMENT 1): 3.74%
- Percent bound at 8.74 μM 16742 conc (RIPK2; EXPERIMENT 1): 42.39%
- Percent bound at 52 μM 16742 conc (RIPK2; EXPERIMENT 1): 91.89%
- Kd (RIPK2; EXPERIMENT 1, read-out: Kd): 11.4 µM
- Percent bound at 1.87 μM 16742 conc (RIPK2; EXPERIMENT 2): 5.20%
- Percent bound at 8.74 μM 16742 conc (RIPK2; EXPERIMENT 2): 38.79%
- Percent bound at 52 μM 16742 conc (RIPK2; EXPERIMENT 2): 90.30%
- Kd (RIPK2; EXPERIMENT 2, read-out: Kd): 12.4 µM
- Kd (RIPK2; read-out: Kd Avg): 11.9 µM

Compound: CC(C)n1c(=O)ccc2cnc(Nc3ccc(OCCN)cc3)nc21 [V16742]
- Kd (JAK1; [2]): 11.1 µM
- affinity class of target for V16742 (ERK2; ERK2): Low affinity target
- Kd (Sepiapterin reductase): 58.6 µM
- Kd (Sepiapterin reductase; Kd Avg, Sepiapterin reductase, average of two experiments): 93 µM
- Kd (Sepiapterin reductase; Kd, Sepiapterin reductase, Experiment 2): 127 µM
- Kd (Sepiapterin reductase; Kd, Sepiapterin reductase, immobilized V16742): 93 µM
- Percent bound at various 16742 conc (Sepiapterin reductase; Sepiapterin reductase, Experiment 1, 1.87 μM 16742): 2.16%
- Percent bound at various 16742 conc (Sepiapterin reductase; Sepiapterin reductase, Experiment 1, 8.74 μM 16742): 2.59%
- Percent bound at various 16742 conc (Sepiapterin reductase; Sepiapterin reductase, Experiment 1, 52 μM 16742): 51.84%
- Percent bound at various 16742 conc (Sepiapterin reductase; Sepiapterin reductase, Experiment 2, 1.87 μM 16742): 1.04%
- Percent bound at various 16742 conc (Sepiapterin reductase; Sepiapterin reductase, Experiment 2, 8.74 μM 16742): 1.52%
- Percent bound at various 16742 conc (Sepiapterin reductase; Sepiapterin reductase, Experiment 2, 52 μM 16742): 30.43%
- affinity class of target for V16742 (JNK2): High affinity target
- Kd (BRD4; [2]): 32 µM
- affinity class of target for V16742 (RIPK2): Moderate affinity target
- r (5 h/2.5 h INC. TIME) ([1]; 5 h vs 2.5 h incubation time): 1.41
- rAVERAGE (CTRL/1 INC) ([1]; control beads vs first incubation): 0.06
- Ki ([1]; immobilized VI16742): 89.8 µM
- rAVERAGE (2 INC/1 INC) ([1]; second vs first incubation): 0.63

Compound: COc1cc2ncnc(Nc3ccc(F)c(Cl)c3)c2cc1OCCCN1CCOCC1 [gefitinib]
- rAVERAGE (10 nM/0 nM Gef.) (SNRPG): 0.65
- rAVERAGE (100 nM/0 nM Gef.) (SNRPG): 1.09
- rAVERAGE (1000 nM/0 nM Gef.) (SNRPG): 0.72
- rAVERAGE (10000 nM/0 nM Gef.) (SNRPG): 0.89
- rAVERAGE (10 nM/0 nM Gef.) (RPL7): 0.84
- rAVERAGE (100 nM/0 nM Gef.) (RPL7): 1.08
- rAVERAGE (1000 nM/0 nM Gef.) (RPL7): 0.86
- rAVERAGE (10000 nM/0 nM Gef.) (RPL7): 0.98
- rAVERAGE (10 nM/0 nM Gef.) (SNRPE): 0.70
- rAVERAGE (100 nM/0 nM Gef.) (SNRPE): 1.11
- rAVERAGE (1000 nM/0 nM Gef.) (SNRPE): 0.74
- rAVERAGE (10000 nM/0 nM Gef.) (SNRPE): 0.93
